Test results reported in patent US20150119245A1, “Method for Producing Shelf Stable Hypochlorous Acid Solutions” (priority 2013, published 2015).

Columns and labels:
[1] = Window cleaner streak test, sprayed on glass and dried without wiping; conditions: test solution as used in streak test
[2] = Available chlorine present as hypochlorous acid as a function of pH (FIG. 2); format: physicochemical
Source text: The concentration of hypochlorous acid solutions (HOCl) are usually reported as free available chlorine (FAC) in parts per million (ppm). Hypochlorous acid (HOCl) is in equilibrium with hypochlorite ion (^−OCl) and Cl2 and the extent of the equilibrium is controlled by the pH of the solution, as shown in FIG. 2. Therefore, both FAC and pH need to be known to understand the amount of chlorine present as hypochlorous acid.
Thus at pH 5, a 100 ppm FAC solution will have 100 ppm chlorine present as HOCl.

Row | Compound | pH [1] | FAC present as hypochlorous acid ([2]; pH 7.5) | available chlorine present as hypochlorous acid ([2]; pH of 3) | available chlorine present as HOCl ([2]; pH range of 4 to 5.6)
1 | [Na+].[OH-] [NaOH, sodium hydroxide] | 12.2 |  |  | 
2 | OCl [hypochlorous acid] |  | 50% | about 90% | approximately 100%
